The source made the active and inactive calls. The calls are words filed in the database; no cut-off is given here.

Experiment [1] concerns Trypanosoma cruzi. Put plainly: Antitrypanosomal activity against Trypanosoma cruzi MHOM/Pe/2011/Arequipa(DTU V) amastigote form infected in BALB/c mouse assessed as reduction in spleen enlargement at 20 mg/kg, po administered for 5 days starting at 100 days post infection and measured after 145 days post infection. The conditions noted are these: time 5.0 day. The experiment is classed as functional, organism-based.

The subject of experiment [2] is Trypanosoma cruzi. Briefly: Antitrypanosomal activity against Trypanosoma cruzi MHOM/Pe/2011/Arequipa(DTU V) amastigote form infected in BALB/c mouse assessed as reduction in parasitaemia at 20 mg/kg, po for 5 days starting at 9 days post infection and measured after 7 days post infection relative to control. Set-up: scale not given: the % may be the effect or the level left. The conditions noted are these: time 5 day. The experiment is classed as functional.

The test system of experiment [3] is Trypanosoma cruzi. Put plainly: Antitrypanosomal activity against Trypanosoma cruzi MHOM/Pe/2011/Arequipa(DTU V) amastigote form infected in BALB/c mouse assessed as reduction in parasite growth at 20 mg/kg, po administered for 5 days starting at 100 days post infection and measured up to 106 days post infection by ELISA assay. Format: functional, organism-based. The conditions noted are these: time 5.0 day. On the technique in general: An ELISA detects its analyte on a solid surface through an enzyme-linked reagent.

Experiment [4] deals with Trypanosoma cruzi. Briefly: Inhibition of Trypanosoma cruzi MHOM/Pe/2011/Arequipa(DTU V) epimastigote form Fe-SOD at 12.5 uM by UV-VIS spectrophotometric method relative to control.
In experiment [5] the test system is Trypanosoma cruzi. Briefly: Antitrypanosomal activity against Trypanosoma cruzi MHOM/Pe/2011/Arequipa(DTU V) amastigote form infected in BALB/c mouse assessed as reduction in parasite growth at 20 mg/kg, po administered for 5 days starting at 9 days post infection and measured up to 106 days post infection by ELISA assay. Format: functional, organism-based. The conditions noted are these: time 5.0 day.

For experiment [6], the system named is Trypanosoma cruzi. Put plainly: Antitrypanosomal activity against Trypanosoma cruzi MHOM/Pe/2011/Arequipa(DTU V) amastigote form infected in BALB/c mouse assessed as reduction in parasitaemia at 20 mg/kg, po for 5 days starting at 9 days post infection and measured after 13 to 35 days post infection. The experiment is classed as functional, organism-based. To be noted: time 5.0 day.

The inhibition is the drop in the measured response relative to a control, in per cent. As to `COC(=O)[C@]1(C)CCC[C@]2(C)C3=C(C=C[C@@H]12)C(=O)C(C(C)C)=CC3=O`, the outcome in the experiment on Trypanosoma cruzi [1], in the experiment on Trypanosoma cruzi [3], with Trypanosoma cruzi [5] and with Trypanosoma cruzi [6] was Active. For the same compound, the Activity in the experiment with Trypanosoma cruzi [2] was 65%. Further, the inhibition with Trypanosoma cruzi [4] was determined as 80%.

The values are drawn from ChEMBL document CHEMBL4673334, “In Vivo Biological Evaluation of a Synthetic Royleanone Derivative as a Promising Fast-Acting Trypanocidal Agent by Inducing Mitochondrial-Dependent Necrosis” (J Nat Prod, 2020).
